Among the data in ChEMBL document CHEMBL1201862, “PubChem BioAssay data set” (2004) are IC50, EC50 and AC50 values, retold here.

Structures are written as SMILES. Activity calls are given as the source filed them.

The term AC50 denotes the concentration giving half of the maximal activity seen.

The target in data set [1] is Eukaryotic translation initiation factor 4E (Mus musculus, UniProt P63073). As to the kind of experiment: blockers of eIF4G binding by eIF4E – biochemical, TR-FRET, dose response (AID 855).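 Note: potency for disrupting eIF4E binding to eIF4GI seen as loss of FRET.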 It counts as functional. Background: In TR-FRET formats the signal depends on donor and acceptor labels being close together.
Data set [2] is described as follows: Luminescence Cell-Based Dose Response HTS to Identify Inhibitors of 5'UTR Stem-Loop Driven Prion Protein mRNA Translation in H4 Neuroglioblastoma Cells. [Related pubchem assays: 1827 (Project Summary), 1813 (Primary HTS)]. The class given is functional.
The nature of data set [3]: luciferase reporter signal suppression in cells – H4 neuroglioma cells, luminescence, dose response (AID 1990). It counts as functional, cell-based. A general note: A reporter such as luciferase makes a cellular process visible.
Data set [4] can be described thus: alpha-synuclein stem-loop luciferase translation blockers – H4 neuroglioma cells, luminescence, confirmation (AID 1988). The class given is functional, cell-based.
A short description of data set [5]: blockers of CRF-binding protein–CRF-R2 complex – cell-based, uHTS hits, 384-well, dose response (AID 651639). The class given is functional, Homo sapiens. Conditions: read-out: IC50_Mean.
In data set [6] the target is T1, Corticotropin-releasing factor receptor 2/Corticotropin-releasing factor-binding protein (Homo sapiens, UniProt P24387+Q13324).
T1 sequence (Q13324 whole entry): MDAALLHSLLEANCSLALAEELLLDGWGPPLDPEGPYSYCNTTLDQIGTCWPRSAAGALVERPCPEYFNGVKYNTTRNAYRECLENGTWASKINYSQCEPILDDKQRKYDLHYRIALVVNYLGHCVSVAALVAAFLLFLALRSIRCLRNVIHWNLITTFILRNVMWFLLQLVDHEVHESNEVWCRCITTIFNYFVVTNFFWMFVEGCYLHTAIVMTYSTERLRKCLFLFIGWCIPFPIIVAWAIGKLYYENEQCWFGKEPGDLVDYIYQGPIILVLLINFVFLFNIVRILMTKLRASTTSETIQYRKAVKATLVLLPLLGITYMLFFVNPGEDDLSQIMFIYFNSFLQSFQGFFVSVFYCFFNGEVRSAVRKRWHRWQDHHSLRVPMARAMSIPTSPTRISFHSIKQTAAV
T1 sequence (P24387 whole entry): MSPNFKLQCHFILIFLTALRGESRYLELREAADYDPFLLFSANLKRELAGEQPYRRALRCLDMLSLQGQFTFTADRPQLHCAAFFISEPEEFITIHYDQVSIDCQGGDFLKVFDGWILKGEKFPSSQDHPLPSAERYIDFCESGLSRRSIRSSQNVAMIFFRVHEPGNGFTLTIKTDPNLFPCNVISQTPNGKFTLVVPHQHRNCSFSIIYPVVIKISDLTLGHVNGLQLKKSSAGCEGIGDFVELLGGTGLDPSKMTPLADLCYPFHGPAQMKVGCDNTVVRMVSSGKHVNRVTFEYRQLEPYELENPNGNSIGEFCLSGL
As to the kind of experiment: activators of CRF receptor 2 with binding protein – uHTS hits, confirmation (AID 602473). Conditions: read-out: EC50_Mean. It counts as functional.

The target of data set [7] is T1, Corticotropin-releasing factor receptor 2/Corticotropin-releasing factor-binding protein. Put plainly: Dose Response confirmation of uHTS hits for small molecule antagonists of the CRF-binding protein and CRF-R2 receptor complex. The class given is functional. Conditions: read-out: IC50_Mean.
The target of data set [8] is T2, Cytochrome P450 3A4 (Homo sapiens, UniProt P08684).
Data set [9] addresses Cytochrome P450 2D6 (Homo sapiens, UniProt P10635).
In data set [10] the test system is HEK293. As to the kind of experiment: cells. Particulars: Homo sapiens.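 Note: cells exposed to compound for 14 hours overnight before viability readout.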
For data set [11], the target named is Tumor necrosis factor (Homo sapiens, UniProt P01375). Put plainly: analog potency on TNFa NF-kB signaling – cell-based, revised, SAR follow-up (AID 2337). It counts as functional.
In data set [12] the target is T3, Cytochrome P450 2C9 (Homo sapiens, UniProt P11712).
The target in data set [13] is T4, Cytochrome P450 1A2 (Homo sapiens, UniProt P05177).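 Note: PubChem cytochrome P450 panel assay, CYP1A2 panel member.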
T4 sequence (P05177 whole entry): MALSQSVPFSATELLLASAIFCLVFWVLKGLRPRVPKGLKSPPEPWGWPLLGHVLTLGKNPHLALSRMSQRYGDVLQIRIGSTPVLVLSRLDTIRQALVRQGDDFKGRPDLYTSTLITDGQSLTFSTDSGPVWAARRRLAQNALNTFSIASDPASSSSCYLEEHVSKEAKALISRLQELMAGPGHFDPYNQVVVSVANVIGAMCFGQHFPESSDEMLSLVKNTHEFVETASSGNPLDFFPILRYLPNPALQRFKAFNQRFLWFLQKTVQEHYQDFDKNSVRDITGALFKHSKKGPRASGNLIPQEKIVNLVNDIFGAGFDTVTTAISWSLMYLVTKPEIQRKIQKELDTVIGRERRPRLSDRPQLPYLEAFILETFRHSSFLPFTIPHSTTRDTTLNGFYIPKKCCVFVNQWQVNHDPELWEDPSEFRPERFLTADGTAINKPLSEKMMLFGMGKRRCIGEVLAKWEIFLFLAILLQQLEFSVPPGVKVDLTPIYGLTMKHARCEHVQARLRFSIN

For data set [14], the target named is T2, Cytochrome P450 3A4. The source holds these as a separate data set.
The target of data set [15] is Cytochrome P450 2C19 (Homo sapiens, UniProt P33261). As to the kind of experiment: Cytochrome panel assay with activity outcomes. Panel member name: p450-cyp2c19 Compounds with AC50 equal or less than 10 uM are considered active. It counts as functional.
The target in data set [16] is T3, Cytochrome P450 2C9. This is another data set of the same source.
The target in data set [17] is T5, DNA repair protein RAD52 homolog (Homo sapiens, UniProt P43351).
T5 sequence (P43351 whole entry): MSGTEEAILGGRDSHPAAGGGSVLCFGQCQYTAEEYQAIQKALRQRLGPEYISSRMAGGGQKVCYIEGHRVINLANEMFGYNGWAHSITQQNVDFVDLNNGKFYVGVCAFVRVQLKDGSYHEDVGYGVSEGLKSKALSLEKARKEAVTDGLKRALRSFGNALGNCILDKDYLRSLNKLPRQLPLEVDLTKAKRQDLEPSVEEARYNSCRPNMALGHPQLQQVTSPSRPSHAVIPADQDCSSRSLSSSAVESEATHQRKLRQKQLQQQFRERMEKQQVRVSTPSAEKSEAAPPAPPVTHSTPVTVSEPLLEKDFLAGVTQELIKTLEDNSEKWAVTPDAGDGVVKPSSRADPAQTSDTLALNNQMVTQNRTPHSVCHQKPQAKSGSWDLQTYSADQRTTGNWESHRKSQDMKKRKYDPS
It counts as functional, biochemical.

Data set [18] has as its target T6, DNA repair and recombination protein RAD54-like (Homo sapiens, UniProt Q92698).
T6 sequence (Q92698 whole entry): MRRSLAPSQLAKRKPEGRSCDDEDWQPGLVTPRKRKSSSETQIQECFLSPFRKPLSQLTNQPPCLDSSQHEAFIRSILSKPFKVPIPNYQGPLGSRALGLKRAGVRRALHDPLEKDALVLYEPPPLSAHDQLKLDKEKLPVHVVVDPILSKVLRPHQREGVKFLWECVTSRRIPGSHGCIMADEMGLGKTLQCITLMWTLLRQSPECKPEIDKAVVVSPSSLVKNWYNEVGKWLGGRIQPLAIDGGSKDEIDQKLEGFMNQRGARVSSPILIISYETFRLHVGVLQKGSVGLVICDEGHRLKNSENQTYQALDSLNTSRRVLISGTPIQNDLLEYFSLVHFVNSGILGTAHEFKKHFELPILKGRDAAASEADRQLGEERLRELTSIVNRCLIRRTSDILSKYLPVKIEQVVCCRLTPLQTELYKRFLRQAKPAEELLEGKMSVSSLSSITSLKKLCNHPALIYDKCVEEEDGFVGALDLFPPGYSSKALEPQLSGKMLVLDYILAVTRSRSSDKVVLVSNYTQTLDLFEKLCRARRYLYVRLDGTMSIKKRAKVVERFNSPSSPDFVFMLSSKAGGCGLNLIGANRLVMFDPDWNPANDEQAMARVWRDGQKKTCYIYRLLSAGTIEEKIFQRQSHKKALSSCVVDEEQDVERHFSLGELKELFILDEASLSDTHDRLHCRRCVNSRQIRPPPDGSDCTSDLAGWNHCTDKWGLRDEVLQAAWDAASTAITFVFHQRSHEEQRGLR
Put plainly: RAD54 Holliday junction migration blockers – biochemical, fluorescence, cherry-picked samples, dose series, confirmation (AID 651657). The class given is functional.

A short description of data set [19]: NIH3T3 cell viability loss – ATP luminescence, mouse fibroblasts, counter-screen, dose response (AID 2010).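 Note: cells exposed to compound for about 90 hours before reading.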 The class given is functional, cell-based. Conditions: NIH3T3. Background: The purpose of a counterscreen is to sort out artefacts and off-target activity.
Data set [20] can be described thus: Trypanosoma cruzi growth suppression in host cells – NIH3T3 host cells, beta-gal luminescence, confirmation (AID 2044).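 Note: intracellular parasites grown in NIH/3T3 mouse fibroblasts as host cells; luminescent beta-galactosidase reporter signal from transgenic T. cruzi replicating inside host cells; inhibitors lower the luminescence signal.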 It counts as functional, cell-based.

T2 sequence (P08684 whole entry): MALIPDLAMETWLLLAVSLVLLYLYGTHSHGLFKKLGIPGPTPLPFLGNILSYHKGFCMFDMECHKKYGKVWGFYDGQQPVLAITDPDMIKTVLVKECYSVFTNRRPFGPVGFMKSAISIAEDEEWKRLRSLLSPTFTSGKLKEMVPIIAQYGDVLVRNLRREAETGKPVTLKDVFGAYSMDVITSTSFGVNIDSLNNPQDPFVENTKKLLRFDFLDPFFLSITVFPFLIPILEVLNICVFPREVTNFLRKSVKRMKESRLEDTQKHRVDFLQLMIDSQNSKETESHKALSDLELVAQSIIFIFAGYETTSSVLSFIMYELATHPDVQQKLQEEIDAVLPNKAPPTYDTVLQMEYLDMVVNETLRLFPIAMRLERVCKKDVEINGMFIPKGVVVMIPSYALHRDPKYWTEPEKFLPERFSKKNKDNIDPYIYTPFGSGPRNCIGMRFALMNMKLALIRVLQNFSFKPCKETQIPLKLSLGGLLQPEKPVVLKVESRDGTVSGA
Chain of Cytochrome P450 2D6 (P10635 whole entry): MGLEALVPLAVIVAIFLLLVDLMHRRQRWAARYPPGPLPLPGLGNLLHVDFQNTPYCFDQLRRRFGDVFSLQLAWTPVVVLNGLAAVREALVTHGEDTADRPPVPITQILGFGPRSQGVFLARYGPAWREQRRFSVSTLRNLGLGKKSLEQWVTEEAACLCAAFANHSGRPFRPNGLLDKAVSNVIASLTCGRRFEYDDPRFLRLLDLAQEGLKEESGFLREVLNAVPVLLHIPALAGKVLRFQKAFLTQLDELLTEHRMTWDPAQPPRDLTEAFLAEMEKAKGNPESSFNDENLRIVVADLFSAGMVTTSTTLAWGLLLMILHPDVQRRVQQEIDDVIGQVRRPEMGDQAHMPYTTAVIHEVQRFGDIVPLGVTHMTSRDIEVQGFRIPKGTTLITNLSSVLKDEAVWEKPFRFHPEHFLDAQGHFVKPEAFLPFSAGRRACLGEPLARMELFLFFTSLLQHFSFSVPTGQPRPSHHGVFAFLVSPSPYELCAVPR
T3 sequence (P11712 whole entry): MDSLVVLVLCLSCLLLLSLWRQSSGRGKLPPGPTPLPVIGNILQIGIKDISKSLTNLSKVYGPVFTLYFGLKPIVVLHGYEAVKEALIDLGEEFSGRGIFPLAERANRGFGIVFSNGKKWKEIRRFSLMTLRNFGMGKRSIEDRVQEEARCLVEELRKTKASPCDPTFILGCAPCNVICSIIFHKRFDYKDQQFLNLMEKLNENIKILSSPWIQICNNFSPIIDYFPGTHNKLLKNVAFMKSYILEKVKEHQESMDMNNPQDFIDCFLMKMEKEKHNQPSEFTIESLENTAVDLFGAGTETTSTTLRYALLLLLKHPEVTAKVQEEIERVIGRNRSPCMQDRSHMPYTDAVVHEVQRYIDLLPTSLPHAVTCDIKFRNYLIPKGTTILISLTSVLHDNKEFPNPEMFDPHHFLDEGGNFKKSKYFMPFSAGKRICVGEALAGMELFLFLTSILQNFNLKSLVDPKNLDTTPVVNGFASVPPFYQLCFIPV
Chain of Cytochrome P450 2C19 (P33261 whole entry): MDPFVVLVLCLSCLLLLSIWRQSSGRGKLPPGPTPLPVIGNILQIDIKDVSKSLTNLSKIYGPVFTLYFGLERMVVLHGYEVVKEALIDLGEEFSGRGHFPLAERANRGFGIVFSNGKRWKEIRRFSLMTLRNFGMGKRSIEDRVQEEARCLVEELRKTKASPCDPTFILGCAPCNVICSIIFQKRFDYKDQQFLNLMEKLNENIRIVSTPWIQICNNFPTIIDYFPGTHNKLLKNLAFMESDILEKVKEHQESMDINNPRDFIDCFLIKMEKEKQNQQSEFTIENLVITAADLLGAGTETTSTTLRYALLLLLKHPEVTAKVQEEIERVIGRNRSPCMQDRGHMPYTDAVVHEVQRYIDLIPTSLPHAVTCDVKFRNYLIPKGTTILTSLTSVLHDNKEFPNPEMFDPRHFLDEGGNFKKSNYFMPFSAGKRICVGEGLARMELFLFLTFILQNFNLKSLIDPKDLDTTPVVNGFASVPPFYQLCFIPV
Chain of Tumor necrosis factor (P01375 whole entry): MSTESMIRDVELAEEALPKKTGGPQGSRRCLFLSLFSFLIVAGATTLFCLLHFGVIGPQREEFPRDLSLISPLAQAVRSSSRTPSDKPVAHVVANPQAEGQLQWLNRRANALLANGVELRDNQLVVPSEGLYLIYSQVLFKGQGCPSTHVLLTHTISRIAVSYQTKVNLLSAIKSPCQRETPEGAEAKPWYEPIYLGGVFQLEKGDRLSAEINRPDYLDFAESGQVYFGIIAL
Chain of Eukaryotic translation initiation factor 4E (P63073 whole entry): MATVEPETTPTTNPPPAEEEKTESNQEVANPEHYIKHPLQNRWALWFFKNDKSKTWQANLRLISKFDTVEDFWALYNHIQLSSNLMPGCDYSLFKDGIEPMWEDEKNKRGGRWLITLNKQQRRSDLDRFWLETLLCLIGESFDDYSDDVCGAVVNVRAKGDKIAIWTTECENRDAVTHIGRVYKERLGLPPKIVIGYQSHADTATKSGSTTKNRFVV

On to `COc1ccc(-c2c(C)nn3c(N)c(C#N)cnc23)cc1OC`, for which the IC50 in data set [1] is 50 µM (inactive). Also, the EC50 in data set [2] was > 120 µM (not active); in data set [3], 50.1 µM (active); in data set [4], > 120 µM (not active).

In the case of `COc1ccc(C(C(=O)NC2CCCC2)N(C(=O)c2ccoc2C)c2cc(C)cc(C)c2)cc1` (stereo not given), the IC50 in data set [5] was > 20 µM (inactive); in data set [7], 5.69 µM (active). Besides, in data set [6], the EC50 was > 53 µM (inactive).

Take `CCN1C(=O)[C@H]2[C@H]3[C@H](O)[C@H](O)C/C(=N/OC[C@@H](C)[C@H](OCc4ccccc4)C(C)C)[C@@H]3CC[C@@H]2C1=O`: the AC50 in data set [8] is 3.98 µM (inconclusive); in [9] it was “inconclusive”.

`CCC(=O)N1CCc2cc(S(=O)(=O)N3CCN(c4ccc([N+](=O)[O-])cc4)CC3)ccc21`: the IC50 in data set [10] and in data set [11] was > 20 µM (inactive) each time.

With `Cc1cc2c(cc1C)-c1nnc(-c3ccc4ccccc4n3)n1C(C)(C)C2`, the AC50 result in data set [12] is “inconclusive”; in [13], 5.01 µM (inconclusive); in data set [14], “inconclusive”.

With `N#Cc1cccc(NC(=O)N2CCC3(CC2)CCN(C(=O)c2ccco2)CC3)c1`, the AC50 in [15] (read-out: AC50) was 20 µM (inconclusive); in data set [14] it was “inconclusive”.

Consider `COC(=O)N1CCC2(CC1)CCN(C(c1ccccc1)c1ccccc1)CC2`, for which the AC50 in [16] is 39.8 µM (inconclusive); in data set [14], “inconclusive”.

On to `CCOC(=O)c1cnc2c(C)cc(C)cc2c1NCCCN1CCOCC1`, for which the AC50 in data set [17] was 11.4 µM (active); in data set [18], 5.48 µM (active).

Take `Cc1ccccc1NC(=O)Cc1nc(COC(=O)c2cc([N+](=O)[O-])ccc2NCCO)cs1`: the IC50 in data set [5] was 13.8 µM (active); in [7] it was 23.2 µM (active). In addition, the EC50 in data set [6] is > 53 µM (inactive).

With `CN(C)CCNc1nc2c(c(=O)n(C)c(=O)n2C)n1C`, the AC50 result in data set [9] is given as “inconclusive”.

`CC(C)COc1ccc(C(=O)Nc2scc(-c3ccc(Cl)cc3Cl)c2C(N)=O)cc1`: the EC50 in [19] was > 60 µM (not active); in data set [20], 1.76 µM (active). For the same compound, the AC50 result in data set [14] is reported as “inconclusive”.

With `CNC(=S)NNC(=O)COc1ccccc1C`, in data set [9], the AC50 result is on record as “inconclusive”.

`Nc1nc(Cl)cc(NCCO)n1`: the AC50 entry in data set [15] and in [9] was “inconclusive” in each case.

Regarding `Cc1ccc(S(=O)(=O)c2nnn3c2nc(N2CCCCC2)c2ccccc23)cc1`, the IC50 in data set [5] is 10 µM (active); in [7], 2.96 µM (active). For the same compound, the EC50 in [6] was > 53 µM (inactive); in data set [19], > 60 µM (inconclusive); in [20] it was 1.14 µM (active).

Regarding `CN(C)CCNC(=O)c1cccc(-c2cnc3c(NC=O)cc(-c4ccc(F)cc4)cn23)c1`, the results for the AC50 in [17] and in data set [18] were 3.96 µM (active) and 17.7 µM (active), respectively.

Take `O=C(O)[C@H]1CCN1`: the AC50 entry in data set [12] and in data set [14] was “inconclusive” throughout.

`Cc1ccc2nc3c(cc(C(=O)NCCN4CCOCC4)c(=N)n3CCCN3CCOCC3)c(=O)n2c1`: the AC50 in data set [18] was 29.5 µM (active).
